In article PMC9750858, “Rapid biosensor development using plant hormone receptors as reprogrammable scaffolds” (Nature Biotechnology, 2022):
“And” between values parts separate entries of the source, which are not always exact repeats. Equal values may be shown once.

Columns and labels:
PYR1^WIN-M = target: T1, PYR1^WIN-M (Arabidopsis thaliana, UniProt O49686, A160I/D26G/E4G/F159A/H60P/K59Q/N90S/Y23H); experiment: ELISA-like plate assay, immobilized PYR1^WIN-M, biotinylated ΔN-HAB1^T+; assay type: binding; settings: for ELISA signal generation, receptor cross-reactivity (source data): replicates; for LOD (lower limit of detection): fivefold dilution
T1 construct: made in house
T1 sequence (O49686 with tags, fused parts or gaps E4G/Y23H/D26G/K59Q/H60P/N90S/F159A/A160I): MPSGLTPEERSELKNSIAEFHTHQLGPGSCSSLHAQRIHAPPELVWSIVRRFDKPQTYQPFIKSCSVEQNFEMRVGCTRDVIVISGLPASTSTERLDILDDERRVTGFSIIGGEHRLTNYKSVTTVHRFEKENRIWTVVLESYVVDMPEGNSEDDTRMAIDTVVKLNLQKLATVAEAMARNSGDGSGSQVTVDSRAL

PYR1^PIRI = target: T2, PYR1^PIRI (Arabidopsis thaliana, UniProt O49686, A160T/E130G/F159T/K59R/N119S/S122Q/S92M/V174A); experiment: Split NanoLuc luciferase complementation in yeast, NLuc^N-PYR1^PIRI/NLuc^C-HAB1;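 for split luciferase luminescence (Fig. 4c source data): relative luminescence averaged over the signal plateau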; assay type: cell-based; settings: replicates; for split luciferase luminescence (Fig. 4c source data): ligand pirimiphos-methyl
T2 construct: >PYR1-PIRI; expressed in transfected cells; host or cells: Saccharomyces cerevisiae BY4742

PYR1^DIAZI = PYR1^DIAZI (Arabidopsis thaliana, UniProt O49686, A160V/E8G/F108Y/F159G/L87M/M158V/V81Y); experiment: Split NanoLuc luciferase complementation in yeast, NLuc^N-PYR1^DIAZI/NLuc^C-HAB1;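 for split luciferase luminescence (Fig. 4c source data): relative luminescence averaged over the signal plateau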; assay type: cell-based; set-up: >PYR1-DIAZI; expressed in transfected cells; host or cells: Saccharomyces cerevisiae BY4742; settings: for Sensor signal (Figure 4f top), replicate values: 3 replicates; for split luciferase luminescence (Fig. 4c source data): ligand diazinon, replicates
Chain of PYR1^DIAZI (Q9CAJ0 179-511): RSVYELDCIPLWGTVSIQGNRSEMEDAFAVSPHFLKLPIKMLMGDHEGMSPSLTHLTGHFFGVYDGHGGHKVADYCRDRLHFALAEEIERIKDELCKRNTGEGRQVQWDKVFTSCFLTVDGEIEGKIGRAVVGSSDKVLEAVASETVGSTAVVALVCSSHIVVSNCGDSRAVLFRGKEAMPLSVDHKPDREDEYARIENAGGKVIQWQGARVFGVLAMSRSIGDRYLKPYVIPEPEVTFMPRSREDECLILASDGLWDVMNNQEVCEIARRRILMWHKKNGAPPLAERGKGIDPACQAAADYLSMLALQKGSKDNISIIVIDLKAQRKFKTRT
Chain of PYR1^DIAZI (O49686 other isoform, or with tags, fused parts or gaps E8G/V81Y/L87M/F108Y/M158V/F159G/A160V): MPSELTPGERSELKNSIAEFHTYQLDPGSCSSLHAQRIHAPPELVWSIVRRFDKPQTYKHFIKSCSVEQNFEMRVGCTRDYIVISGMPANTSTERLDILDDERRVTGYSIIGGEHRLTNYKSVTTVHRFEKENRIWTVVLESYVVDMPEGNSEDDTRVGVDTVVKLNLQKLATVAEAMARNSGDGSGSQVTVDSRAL

T2 sequence (O49686 other isoform, or with tags, fused parts or gaps K59R/S92M/N119S/S122Q/E130G/F159T/A160T/V174A): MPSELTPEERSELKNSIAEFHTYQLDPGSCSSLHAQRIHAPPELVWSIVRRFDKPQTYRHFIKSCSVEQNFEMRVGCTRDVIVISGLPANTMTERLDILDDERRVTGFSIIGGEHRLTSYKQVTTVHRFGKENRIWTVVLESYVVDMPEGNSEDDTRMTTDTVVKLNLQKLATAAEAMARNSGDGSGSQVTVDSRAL
T2 sequence (Q9CAJ0 179-511, further chain): as the sequence (Q9CAJ0 179-511) above

## O=C(Nc1cccc2cccnc12)c1cn(CCCCCF)c2ccccc12 [AM2201, AM2201 8-quinolinyl carboxamide]
PYR1^WIN-M; cannabinoid at 2 nM
  ELISA signal generation, receptor cross-reactivity (source data): 0.169 and 0.127 and 0.144
PYR1^WIN-M; cannabinoid at 2 μM
  ELISA signal generation, receptor cross-reactivity (source data): 0.112 and 0.114 and 0.096

## C=C(C)[C@@H]1CCC(C)=C[C@H]1c1c(O)cc(CCCCC)cc1O [Cannabidiol]
PYR1^WIN-M; cannabinoid at 2 nM
  ELISA signal generation, receptor cross-reactivity (source data): 0.109 and 0.094 and 0.096
PYR1^WIN-M; cannabinoid at 2 μM
  ELISA signal generation, receptor cross-reactivity (source data): 0.095 and 0.093 and 0.084

## CCOP(=S)(OCC)Oc1ccc2c(C)c(Cl)c(=O)oc2c1 [Coumaphos]
PYR1^PIRI; [Agonist] 1e-5 nM
  Sensor signal (Figure 4f bottom), replicate values: 11.6429 and 18.6581 and 9.869
PYR1^PIRI; [Agonist] 0.5 nM
  Sensor signal (Figure 4f bottom), replicate values: 10.5853 and 39.7892 and 9.475
PYR1^PIRI; [Agonist] 1 nM
  Sensor signal (Figure 4f bottom), replicate values: 12.0486 and 19.9282 and 8.797
PYR1^PIRI; [Agonist] 10 nM
  Sensor signal (Figure 4f bottom), replicate values: 7.164 and 12.4287 and 9.583
PYR1^PIRI; [Agonist] 100 nM
  Sensor signal (Figure 4f bottom), replicate values: 8.8955 and 12.6369 and 17.1023
PYR1^PIRI; [Agonist] 1000 nM
  Sensor signal (Figure 4f bottom), replicate values: 9.4868 and 11.2169 and 22.673
PYR1^PIRI; [Agonist] 10000 nM
  Sensor signal (Figure 4f bottom), replicate values: 12.3815 and 19.3959 and 83.5281
PYR1^PIRI; [Agonist] 100000 nM
  Sensor signal (Figure 4f bottom), replicate values: 9.584 and 13.286 and 71.6379
PYR1^DIAZI; [Agonist] 1e-5 nM
  Sensor signal (Figure 4f top), replicate values: 16.388 and 9.752 and 14.788
PYR1^DIAZI; [Agonist] 0.5 nM
  Sensor signal (Figure 4f top), replicate values: 30.8829 and 12.1724 and 17.852
PYR1^DIAZI; [Agonist] 1 nM
  Sensor signal (Figure 4f top), replicate values: 36.8131 and 33.8683 and 15.2635
PYR1^DIAZI; [Agonist] 10 nM
  Sensor signal (Figure 4f top), replicate values: 15.4966 and 64.9896 and 15.1391
PYR1^DIAZI; [Agonist] 100 nM
  Sensor signal (Figure 4f top), replicate values: 12.996 and 65.6413 and 15.942
PYR1^DIAZI; [Agonist] 1000 nM
  Sensor signal (Figure 4f top), replicate values: 21.5139 and 73.8437 and 25.5745
PYR1^DIAZI; [Agonist] 10000 nM
  Sensor signal (Figure 4f top), replicate values: 81.7848 and 47.8146 and 79.9027
PYR1^DIAZI; [Agonist] 100000 nM
  Sensor signal (Figure 4f top), replicate values: 105.044 and 22.805 and 29.2791

## CCCCCn1cc(C(=O)c2cccc3ccccc23)cc1-c1ccccc1 [JWH-145]
PYR1^WIN-M; cannabinoid at 2 nM
  ELISA signal generation, receptor cross-reactivity (source data): 0.469 and 0.077 and 0.091
PYR1^WIN-M; cannabinoid at 2 μM
  ELISA signal generation, receptor cross-reactivity (source data): 0.105 and 0.116 and 0.1

## CCCCCn1cc(C(=O)Cc2ccccc2)c2ccccc21 [JWH-167]
PYR1^WIN-M; cannabinoid at 2 nM
  ELISA signal generation, receptor cross-reactivity (source data): 0.146 and 0.078 and 0.09
PYR1^WIN-M; cannabinoid at 2 μM
  ELISA signal generation, receptor cross-reactivity (source data): 0.075 and 0.092 and 0.077

## CCCc1ccc(C(=O)c2cn(CCC)c3ccccc23)c2ccccc12 [JWH-180]
PYR1^WIN-M; cannabinoid at 2 nM
  ELISA signal generation, receptor cross-reactivity (source data): 0.104 and 0.071 and 0.083
PYR1^WIN-M; cannabinoid at 2 μM
  ELISA signal generation, receptor cross-reactivity (source data): 0.08 and 0.088 and 0.087

## Cc1ccc(C(=O)c2cn(CCN3CCOCC3)c3ccccc23)c2ccccc12 [JWH-193]
PYR1^WIN-M; cannabinoid at 2 nM
  ELISA signal generation, receptor cross-reactivity (source data): 0.065 and 0.104 and 0.068
PYR1^WIN-M; cannabinoid at 2 μM
  ELISA signal generation, receptor cross-reactivity (source data): 0.07 and 0.084 and 0.11

## CCCCCn1cc(C(=O)c2cccc3ccccc23)cc1-c1ccccc1C [JWH-370]
PYR1^WIN-M; cannabinoid at 2 nM
  ELISA signal generation, receptor cross-reactivity (source data): 0.069 and 0.076 and 0.063
PYR1^WIN-M; cannabinoid at 2 μM
  ELISA signal generation, receptor cross-reactivity (source data): 0.06 and 0.059 and 0.063

## CCCCCn1cc(C(=O)N2CCN(C)CC2)c2ccccc21 [Mepirapim]
PYR1^WIN-M; cannabinoid at 2 nM
  ELISA signal generation, receptor cross-reactivity (source data): 0.117 and 0.158 and 0.176
PYR1^WIN-M; cannabinoid at 2 μM
  ELISA signal generation, receptor cross-reactivity (source data): 0.111 and 0.116 and 0.103

## CCCCCn1cc(-c2nc(CN(CC)CC)cs2)c2ccccc21 [PTI-1]
PYR1^WIN-M; cannabinoid at 2 nM
  ELISA signal generation, receptor cross-reactivity (source data): 0.097 and 0.112 and 0.193
PYR1^WIN-M; cannabinoid at 2 μM
  ELISA signal generation, receptor cross-reactivity (source data): 0.105 and 0.089 and 0.091

## CCOP(=O)(OCC)Oc1ccc([N+](=O)[O-])cc1 [Paraoxon]
PYR1^PIRI; [Agonist] 1e-5 nM
  Sensor signal (Figure 4f bottom), replicate values: 11.9047 and 18.1515 and 10.4931
PYR1^PIRI; [Agonist] 0.5 nM
  Sensor signal (Figure 4f bottom), replicate values: 11.0975 and 13.4157 and 8.837
PYR1^PIRI; [Agonist] 1 nM
  Sensor signal (Figure 4f bottom), replicate values: 12.5918 and 18.7436 and 9.615
PYR1^PIRI; [Agonist] 10 nM
  Sensor signal (Figure 4f bottom), replicate values: 11.1224 and 13.1225 and 9.775
PYR1^PIRI; [Agonist] 100 nM
  Sensor signal (Figure 4f bottom), replicate values: 10.0591 and 11.6876 and 14.7625
PYR1^PIRI; [Agonist] 1000 nM
  Sensor signal (Figure 4f bottom), replicate values: 10.1585 and 20.7126 and 25.0764
PYR1^PIRI; [Agonist] 10000 nM
  Sensor signal (Figure 4f bottom), replicate values: 13.1804 and 18.2375 and 74.7884
PYR1^PIRI; [Agonist] 100000 nM
  Sensor signal (Figure 4f bottom), replicate values: 12.8083 and 10.7531 and 85.8371
PYR1^DIAZI; [Agonist] 1e-5 nM
  Sensor signal (Figure 4f top), replicate values: 10.8821 and 10.8818 and 16.2674
PYR1^DIAZI; [Agonist] 0.5 nM
  Sensor signal (Figure 4f top), replicate values: 11.8181 and 17.5251 and 16.6639
PYR1^DIAZI; [Agonist] 1 nM
  Sensor signal (Figure 4f top), replicate values: 24.3604 and 44.2392 and 23.2398
PYR1^DIAZI; [Agonist] 10 nM
  Sensor signal (Figure 4f top), replicate values: 60.5829 and 64.6146 and 19.0156
PYR1^DIAZI; [Agonist] 100 nM
  Sensor signal (Figure 4f top), replicate values: 14.8147 and 62.8846 and 19.484
PYR1^DIAZI; [Agonist] 1000 nM
  Sensor signal (Figure 4f top), replicate values: 35.1388 and 74.2295 and 30.1748
PYR1^DIAZI; [Agonist] 10000 nM
  Sensor signal (Figure 4f top), replicate values: 83.5675 and 57.6349 and 70.6242
PYR1^DIAZI; [Agonist] 100000 nM
  Sensor signal (Figure 4f top), replicate values: 100.899 and 20.8486 and 98.4357

## CCCCCc1cc(O)c2c(c1)OC(C)(C)[C@@H]1CCC(C)=C[C@@H]21 [Δ^9-THC, tetrahydrocannabinol]
PYR1^WIN-M; cannabinoid at 2 nM
  ELISA signal generation, receptor cross-reactivity (source data): 0.105 and 0.137 and 0.097
PYR1^WIN-M; cannabinoid at 2 μM
  ELISA signal generation, receptor cross-reactivity (source data): 0.116 and 0.081 and 0.066

B1: PYR1^WIN-M: monomeric PYR1-WIN for ELISA: Y23H, D26G, K59Q, H60P, N90S, F159A, A160I (protein, UniProt O49686 1-191, looked up, variant Y23H D26G K59Q H60P N90S F159A A160I)
Abscisic acid receptor PYR1: MPSELTPEERSELKNSIAEFHTHQLGPGSCSSLHAQRIHAPPELVWSIVRRFDKPQTYQPFIKSCSVEQNFEMRVGCTRDVIVISGLPASTSTERLDILDDERRVTGFSIIGGEHRLTNYKSVTTVHRFEKENRIWTVVLESYVVDMPEGNSEDDTRMAIDTVVKLNLQKLATVAEAMARNSGDGSGSQVT
PYR1^WIN-M; spiked blood serum
  LOD (lower limit of detection): 1,105 pM
PYR1^WIN-M; spiked saliva
  LOD (lower limit of detection): 305 pM
PYR1^WIN-M; spiked urine
  LOD (lower limit of detection): 515 pM

B2: PYR1-diazi: diazinon-responsive heptuple PYR1 mutant (E8G, V81Y, L87M, F108Y, M158V, F159G, A160V) (protein)
chain: MPSELTPGERSELKNSIAEFHTYQLDPGSCSSLHAQRIHAPPELVWSIVRRFDKPQTYKHFIKSCSVEQNFEMRVGCTRDYIVISGMPANTSTERLDILDDERRVTGYSIIGGEHRLTNYKSVTTVHRFEKENRIWTVVLESYVVDMPEGNSEDDTRVGVDTVVKLNLQKLATVAEAMARNSGDGSGSQVT
modifications: left off: Gal4 DNA-binding domain (from the vector pBD), end not stated, kept
PYR1^DIAZI; [Ligand] (uM) 0.01
  split luciferase luminescence (Fig. 4c source data): 2.821 and 4.017 and 3.928
PYR1^DIAZI; [Ligand] (uM) 0.1
  split luciferase luminescence (Fig. 4c source data): 3.172 and 4.215 and 4.029
PYR1^DIAZI; [Ligand] (uM) 1
  split luciferase luminescence (Fig. 4c source data): 4.479 and 4.68 and 4.503
PYR1^DIAZI; [Ligand] (uM) 10
  split luciferase luminescence (Fig. 4c source data): 10.058 and 10.652 and 11.029
PYR1^DIAZI; [Ligand] (uM) 100
  split luciferase luminescence (Fig. 4c source data): 21.801 and 16.912 and 16.034
PYR1^DIAZI; [Ligand] (uM) 1000
  split luciferase luminescence (Fig. 4c source data): 25.73 and 20.742 and 19.283
PYR1^DIAZI; [Ligand] (uM) 10000
  split luciferase luminescence (Fig. 4c source data): 25.492 and 21.692 and 23.422

B3: PYR1-pirimi: pirimiphos-responsive octuple PYR1 mutant (K59R, S92M, N119S, S122Q, E130G, F159T, A160T, V174A) (protein, UniProt O49686 1-191, looked up, variant K59R S92M N119S S122Q E130G F159T A160T V174A)
Abscisic acid receptor PYR1: MPSELTPEERSELKNSIAEFHTYQLDPGSCSSLHAQRIHAPPELVWSIVRRFDKPQTYRHFIKSCSVEQNFEMRVGCTRDVIVISGLPANTMTERLDILDDERRVTGFSIIGGEHRLTSYKQVTTVHRFGKENRIWTVVLESYVVDMPEGNSEDDTRMTTDTVVKLNLQKLATAAEAMARNSGDGSGSQVT
PYR1^PIRI; [Ligand] 0.01
  split luciferase luminescence (Fig. 4c source data): 2.798 and 2.193 and 2.504
PYR1^PIRI; [Ligand] 0.1
  split luciferase luminescence (Fig. 4c source data): 2.824 and 1.934 and 2.89
PYR1^PIRI; [Ligand] 1
  split luciferase luminescence (Fig. 4c source data): 4.065 and 3.256 and 4.278
PYR1^PIRI; [Ligand] 10
  split luciferase luminescence (Fig. 4c source data): 10.289 and 6.672 and 8.183
PYR1^PIRI; [Ligand] 100
  split luciferase luminescence (Fig. 4c source data): 22.748 and 20.257 and 17.606
PYR1^PIRI; [Ligand] 1000
  split luciferase luminescence (Fig. 4c source data): 23.566 and 22.462 and 20.41
PYR1^PIRI; [Ligand] 10000
  split luciferase luminescence (Fig. 4c source data): 23.974 and 20.5 and 20.202
